Test results taken from US11413278B2, “Compounds and methods for promoting stress resistance” (priority 2015, dated 2022).
Where two headings read alike, the source gives them in different places.

Key:
C. elegans = C. elegans lifespan assays (liquid and plate); assay type: in vivo, Caenorhabditis elegans; details: for ILS at 60 µM / ILS at 66 µM: Caenorhabditis elegans; for O = Life span- extending scores in worms: score scale 0 to 2, 4 to 6 independent trials; for M = Lifespan-extending scores in worms: summary score
FOXO3 = FOXO3 siRNA knockdown: dependency for H2O2-resistance; assay type: cell-based, human
WI-38 cells [1] = details: for Percentage of propidium iodide-positive dead cells (no H2O2 stress treatment), at 10 uM: negative control 0.41% ± 0.23%
Procedure: WI-38 cells were seeded on 384-well plates for 24 hrs and then incubated with small molecules for 24 hrs. […] Images were collected on an INCell Analyzer 2000 (GE) and analyzed with the Developer software.

WI-38 cells [2] = test: CdCl2 (cadmium) resistance assay; assay type: cell-based, human; details: for fold induction at 10 µM: Homo sapiens, 12 h, normalized ATP measurement; for Assay 4: H2O2- & Cd-resistant / Assay 2: Cadmium-resistant: YES/NO; for Assay 2: Cadmium-resistant: * indicates partial
Summary of the method: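 Resistance to CdCl2 or MMS stress (12 h exposure) was scored in WI-38 fibroblasts pretreated with compound at 0.25–20 μM final, five doses, technical triplicates. MMS plates had compound added 24 h before MMS, after a shift to serum-free DMEM+2% BSA. Significance came from a global variance t-test over two independent runs.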

[3] = in liquid, wild type, with FuDR, 1.0 × 10^9 bacteria/ml, read-out: relative change of mean lifespan vs control, Trial 1
[4] = in liquid, wild type, with FuDR, 2.5 × 10^9 bacteria/ml, read-out: relative change of mean lifespan vs control, Trial 2
[5] = on plate, CF512 temperature-sensitive sterile animals, without FuDR, 2.0 × 10^10 bacteria/ml, read-out: relative change of mean lifespan vs control, Trial 3
[6] = Assay 2(z), 1.0 × 10^9 bacteria/ml, wild type + FuDR (2012 July), read-out: Lifespan assay in liquid
[7] = Assay 3(aa), 2.5 × 10^9 bacteria/ml, wild type + FuDR, read-out: Lifespan assay in liquid
[8] = Assay 4(ab), 2.0 × 10^10 bacteria/ml, CF512 worms, no FuDR, read-out: Lifespan assay on plates
[9] = Exp. 1, WI-38 cells, read-out: Exp. 1, under Cd2Cl2 stress treatment, at 10 uM (fold change)
[10] = Exp. 2, WI-38 cells, read-out: Exp. 2, under Cd2Cl2 stress treatment, at 10 uM (fold change)
[11] = score in summary of 38 core set hits
[12] = WI-38 cells, 10 μM, both stressors

| Compound | ILS at 60 µM (C. elegans; [3]) | ILS at 60 µM (C. elegans; [4]) | ILS at 60 µM (C. elegans; [5]) | ILS at 66 µM (C. elegans; [6]) | ILS at 66 µM (C. elegans; [7]) | ILS at 66 µM (C. elegans; [8]) | O = Life span- extending scores in worms (C. elegans) | M = Lifespan-extending scores in worms (C. elegans) | I = FOXO3-dependency for H2O2-resistance (FOXO3; score) | I = FOXO3-dependency for H2O2-resistance (FOXO3; summary score) | fold induction at 10 µM (WI-38 cells [2]; [9]) | fold induction at 10 µM (WI-38 cells [2]; [10]) | Assay 4: H2O2- & Cd-resistant (WI-38 cells [2]) | Assay 2: Cadmium-resistant (WI-38 cells [2]) | A = Cadmium resistant (WI-38 cells [2]; [11]) | A = Cadmium resistant (WI-38 cells [2]; summary score) | C = H2O2- & Cd-resistant (WI-38 cells [2]; summary score) | Percentage of propidium iodide-positive dead cells (no H2O2 stress treatment), at 10 uM (WI-38 cells [1]) | CdCl2-resistant (WI-38 cells [2]) | H2O2- & CdCl2-resistant (WI-38 cells [2]) | other results |
| --- | --- | --- | --- | --- | --- | --- | --- | --- | --- | --- | --- | --- | --- | --- | --- | --- | --- | --- | --- | --- | --- |
| O=C(NCc1cccnc1)/C(=C\c1ccc(Br)cc1)S(=O)(=O)c1ccccc1 [Gr-7B] | 1.3% | 3.5% | 14.9% | 1.3% | 3.5% | 14.9% | 0 | 0 | 0 | 0 | 0.12 | 0.26 | YES | YES | 0 | 1 | 1 | – | – | – | PI cell-death imaging without H2O2 (indicating potential toxicity) (WI-38 cells [1]; Assay 8(k), without H2O2, at 10 uM): YES; PI-positive dead cells under normal conditions (WI-38 cells [1]; WI-38, no H2O2, control 0.4±0.2%): 3.6%±0.7% |
| O=C1NCCCc2cc(Cl)sc21 [O1] | 1.8% | -1.7% | 22.1% | 1.8% | -1.7% | 22.1% | 0 | 0 | 0 | 0 | 1.84 | 1.86 | YES | YES | 1 | 1 | 1 | 0.30% ± 0.13%, | YES | YES | ILS at 60 µM (C. elegans; on plate, CF512 temperature-sensitive sterile animals, without FuDR, 1.0 × 10^11 bacteria/ml, read-out: relative change of mean lifespan vs control, Trial 4): -2.2%; ILS at 66 µM (C. elegans; Assay 5(ac), 1.0 × 10^11 bacteria/ml, CF512 worms, no FuDR, read-out: Lifespan assay on plates): -2.2%; CdCl2-resistant (WI-38 cells [2]; WI-38 cells, 10 μM): YES; H2O2- & CdCl2-resistant (WI-38 cells [2]; [12]): YES |
| CC1C(=O)C(C)C(c2cc(Cl)ccc2O)NC1c1cc(Cl)ccc1O (centres unmarked) [O6] | 28.3% | 10.3% | 3.9% | 28.3% | 10.3% | 3.9% | 1 (1 for lifespan extension observed in 2 trials) | 1 (1 for lifespan extension observed in 2 trials) | 0 | 0 | 2.18 | 2.05 | YES | YES | 1 | 1 | 1 | 0.36% ± 0.10%, | YES | YES | CdCl2-resistant (WI-38 cells [2]; WI-38 cells, 10 μM): YES; H2O2- & CdCl2-resistant (WI-38 cells [2]; [12]): YES |
